Legend:
CD8+ T cells = assay: exogenous autologous normal donor restimulation assay, TNFα/IFNγ double positive CD8+ T cells by flow cytometry; format: cell-based, human; conditions: for Fold change (CD8+) vs. DMSO: maximum CD8+ T-cell response (TNFα and IFNγ); for Fold change (CD8+) vs. DMSO / Frequency (TNFα + IFNγ + CD8 T cells): donor independent, peptide pool 10 μg/mL, healthy donors; for Frequency (TNFα + IFNγ + CD8 T cells): maximum CD8+ T-cell response; for Immunogenic (yes/no): positive if CD8+ and/or CD4+ double positive TNFα/IFNγ frequency >=3-fold over DMSO and at least 0.01%
Protocol: (§1) The immunogenicity of neoantigens was assessed using the exogenous autologous normal donor restimulation assay. […] The lyophilized peptides were solubilized in 100% DMSO.
(§2) CD1c+ Dendritic Cells (CD1c+DC) isolated from human healthy PBMCs were thawed using media (IMDM (Gibco) supplemented with glutamine, HEPES, 5% human serum (Sigma), and 1× Pen-Strep). DC cells were resuspended in media supplemented with IL-4 (Peprotech, 20 ng/mL) and GM-CSF (Gibco, 20 ng/mL), plated in 6 well microplates, and rested overnight at 37° C. and 5% CO2 incubator. The following day, DC cells were counted and plated in a 96 well round bottom microplate at a concentration of 30,000 viable cells per well. Lyophilized neoantigen peptide pools (15-mer peptides with 8-mer overlapping peptide sequences) were solubilized in 100% DMSO with a stock concentration of 20 mg/mL Neoantigen peptides pools were added to DCs for a final concentration of 10 μg/mL and rested for 2 hours at 37° C. and 5% CO2 incubator. CEF Peptide Pool “Plus” (Cellular Technologies, Ltd.) was utilized as a positive control (each viral peptide at a final concentration of 4 ug/ml) and DMSO at the same final concentration (0.05%) as the experimental peptides was utilized as a negative control. After 2 hours, DC cells were irradiated with 50 gray of ionizing radiation. Autologous CD3+ Pan-T cells isolated from human normal PBMCs were thawed using media. Following irradiation, autologous Pan-T cells were added to the irradiated DCs at 300,000 viable cells per well. Human IL-15 (Peprotech) was added to all wells at final concentration of 10 ng/ml. Plates were incubated at 37° C. and 5% CO2 incubator for a total of 12 days. Media was refreshed every 2-3 days with IL-15 (R&D System, 10 ng/mL final concentration) and IL-2 (R&D systems, 10 IU/mL final concentration).
(§3) On Day 11, cells were re-stimulated with identical experimental peptide pools or controls, at same concentration as peptide stimulation on Day 1. Protein Inhibitor Cocktail (eBioscience) was added to every well and plate was incubated overnight for 14-16 hours at 37° C. and 5% CO2 incubator. On Day 12, cells were stained for surface and intracellular flow cytometry analysis. The cells were washed with PBS and stained with Live/Dead Fixable Aqua Dead Cell stain (Thermo-Fisher). Following the live/dead stain, cells were blocked using Biotin-Fre Fc Receptor Blocker (Accurate Chemical & Scientific Corp). Extracellular cellular flow panel ([…] per well in 50 μL) consisted of CD3 PerCP-Cy5.5 (Biolegend), CD4 BV421 (Biolegend), and CD8 APC-Cy7 (Biolegend). After extracellular staining, cells were fixed and permeabilized using Foxp3/Transcription Factor Staining Buffer Set (eBioscience) and stained for intracellular proteins (1:50 dilution) using TNFα FITC (R&D Systems) and IFNγ BV785 (Biolegend). Cells were washed and resuspended in stain buffer, analyzed, and recorded in a BD Celesta flow cytometer.
(§4) Flow cytometry analysis was conducted on FlowJo v10.6 software. Cells were gated on live, singlet, CD3+, CD4+ and CD8+ T cells. The CD8+ and CD4+ T cells were analyzed for TNFα and IFNγ expression.
(§5) The immunogenicity of neoantigens was first investigated in 9-16 healthy donors.

CD4+ T cells = assay: exogenous autologous normal donor restimulation assay, TNFα/IFNγ double positive CD4+ T cells by flow cytometry; format: cell-based, human; conditions: donor independent, peptide pool 10 μg/mL, healthy donors; for Fold change (CD4+) vs. DMSO: maximum CD4+ T-cell response (TNFα and IFNγ); for Frequency (TNFα + IFNγ + CD4 T cells): maximum CD4+ T-cell response
Protocol: as §1, §2, §3, §4, §5

| Sequence | Fold change (CD8+) vs. DMSO (CD8+ T cells) [fold] | Frequency (TNFα + IFNγ + CD8 T cells) (CD8+ T cells) [%] | Immunogenic (yes/no) (CD8+ T cells) | Fold change (CD4+) vs. DMSO (CD4+ T cells) [fold] | Frequency (TNFα + IFNγ + CD4 T cells) (CD4+ T cells) [%] |
| --- | --- | --- | --- | --- | --- |
| GFILIGWGAGNLVLETSSGFIKHRS [AS69, neoantigen, alternative splicing of PTH2R] | 260.42 | 1 | Yes | 9.21 | 0.011 |
| GGLTLGARNTLTHGSPGPSQATVAVAPLSGRAAVSAAGGCVFLLLPACVPRRCHWIP [FUS16, neoantigen, gene fusion NDUFA11->FUT5] | 261.6 | 5.69 | yes | 12.58 | 0.045 |
| GTMEVKSKKKQTTVPLVQTR [AS67, neoantigen, alternative splicing of PARD6B] | 6.36 | 0.17 | Yes | 3.15 | 0.028 |
| HFECYHCEIRIPRKSNGIRGFLLTWRRDGNTSTSVQQTTSSL [FUS11, neoantigen, gene fusion AJUBA->HAUS4] | 3.3 | 0.071 | yes | 39.13 | 0.14 |
| HFSRLCGPVSHLSAHLAHLR [AS119, neoantigen, alternative splicing of SMAD6] | 1.32 | 0.037 | Yes | 4.17 | 0.027 |
| IGKGSFGKFLEDATHMV [AS36, neoantigen, alternative splicing of STK32C] | 7.44 | 0.45 | Yes | 3.36 | 0.04 |
| IPPHLQWESTRQTEWISVREFHLESSLYP [AS61, neoantigen, alternative splicing of IGF2BP3] | 4.86 | 0.13 | Yes | 4.26 | 0.038 |
| KHHLWALEAAWLSGRSPLSEPQLPLQPSGNSSSV [AS120, neoantigen, alternative splicing of STRA6] | 6.24 | 0.067 | Yes | 2.01 | 0.013 |
| KLCSRQRPDCQPVDSRHGPILSIQHLISALHTGDG [AS123, neoantigen, alternative splicing of VWA2] | 115.04 | 1.09 | yes | 3.7 | 0.024 |
| KNFITCFKGGHASAAEPRKGR [FUS22, neoantigen, gene fusion C8orf82->LRRC24] | 8.05 | 0.087 | Yes | 8.67 | 0.31 |
| KRPMASEVSFILIQWLLKP [AS146, neoantigen, alternative splicing of PIP5K1A] | 24.2 | 0.26 | Yes | 8.88 | 0.037 |
| LASGVPPPGLPWGPGPHLG [AS60, neoantigen, alternative splicing of HMCN2] | 265.02 | 1.9 | Yes | 4.3 | 0.019 |

From patent US11945881B2, “Neoantigens expressed in ovarian cancer and their uses” (Janssen Biotech, Inc., priority 2020, dated 2024)
